In US7691889B2, “Antimycobacterial compounds” (Lupin Limited, priority 2002, dated 2010):
In brackets after ≈: the same amount, converted by molar mass.

System: M. tuberculosis clinical isolates, resistant
Test: microbe, parasite or virus in culture
Type: cell-based, Mycobacterium tuberculosis
Details: for MIC against Clinical isolates Resistant: Table I, agar dilution; for MIC: Mycobacterium tuberculosis, read-out: MIC against Clinical isolates Resistant

Compound | MIC against Clinical isolates Resistant | also measured
O=C(CCC(=O)c1ccccc1)NC[C@H]1CN(c2ccc(N3CCSCC3)c(F)c2)C(=O)O1 [Compound 8, (S)-N-[[3-(3-fluoro-4-thiomorpholinylphenyl)-2-oxo-5-oxazolidinyl]methyl]-4-oxo-4-phenylbutanamide] | 2 to 4 µg/mL | 
CC(=O)NC[C@H]1CN(c2ccc(N3CCOCC3)c(F)c2)C(=O)O1 [Linezolid, (S)-N-[[3-[3-fluoro-4-(4-morpholinyl)phenyl]-2-oxo-5-oxazolidin-yl]methyl]-acetamide, reference compound] |  | MIC: 1 to 2 µg/mL (≈ 2.96 to 5.93 µM)
COc1ccc(C(=O)CCC(=O)NC[C@H]2CN(c3ccc(N4CCCCC4)c(F)c3)C(=O)O2)cc1 [Compound 35, (S)-N-[[3-(3-fluoro-4-piperidylphenyl)-2-oxo-5-oxazolidinyl]methyl]-4-(4-methoxyphenyl)-4-oxobutanamide] | 4 to 8 µg/mL | 
CC(C)Cc1ccc(C(=O)CCC(=O)NC[C@H]2CN(c3ccc([N+]4([O-])CCOCC4)c(F)c3)C(=O)O2)cc1 [Compound 33] | 0.5 to 2 µg/mL | 
O=C(CCC(=O)c1ccc2ccccc2c1)NC[C@H]1CN(c2ccc(N3CCCC3)c(F)c2)C(=O)O1 [Compound 57, (S)-N-[[3-(3-fluoro-4-pyrrolidinylphenyl)-2-oxo-5-oxazolidinyl]methyl]-4-(2-naphthyl)-4-oxobutanamide] | >16 µg/mL | 
O=C(CCC(=O)c1cccs1)NC[C@H]1CN(c2ccc([N+]3([O-])CCOCC3)c(F)c2)C(=O)O1 [Compound 31, (S)-N-[[3-(3-fluoro-4-morpholinylphenyl)-2-oxo-5-oxazolidinyl]methyl]-4-oxo-4-(2-thienyl)butanamide-N-oxide] | 1 to 4 µg/mL | 
(S)-N-[[3-(3-fluoro-4-(1,2,4-triazolyl)phenyl)-2-oxo-5-oxazolidinyl]methyl]-4-(2′,2′-dimethyl-4-ethylphenyl)-4-oxobutanamide [Compound 45] | 2 to 4 µg/mL | 
Cc1ccc(C(=S)CCC(=O)NC[C@H]2CN(c3ccc(N4CCOCC4)c(F)c3)C(=O)O2)cc1 [Compound 15, (S)-N-[[3-(3-fluoro-4-morpholinylphenyl)-2-oxo-5-oxazolidinyl]methyl]-4-(4-methylphenyl)-4-thiooxobutanamide] | >16 µg/mL | 
CC(C)Cc1ccc(C(=O)CCC(=O)NC[C@H]2CN(c3ccc(N4CCOCC4)c(F)c3)C(=O)O2)cc1 [Compound 17] | 0.5 to 1.0 µg/mL | 
CSc1ccc(C(=O)CCC(=O)NC[C@H]2CN(c3ccc(-n4cncn4)c(F)c3)C(=O)O2)cc1 [Compound 44, (S)-N-[[3-(3-fluoro-4-(1,2,4-triazolyl)phenyl)-2-oxo-5-oxazolidinyl]methyl]-4-oxo-4-(4-thiomethylphenyl)butanamide] | 1 to 4 µg/mL | 
Cc1ccc(C(=O)CCC(=O)NC[C@H]2CN(c3ccc(-n4nnc5ccccc54)c(F)c3)C(=O)O2)c(C)c1 [Compound 27, (S)-N-[[3-(3-fluoro-4-benzotriazolylphenyl)-2-oxo-5-oxazolidinyl]methyl]-4-(2,4-dimethylphenyl)-4-oxobutanamide] | >16 µg/mL | 
(S)-N-[[3-(3-fluoro-4-morpholinylphenyl)-2-oxo-5-oxazolidinyl]methyl]-4-[4-(2′,2′-dimethyl-4-ethylphenyl)-4-oxobutanamide [Compound 20] | 2 to 4 µg/mL | 
O=C(CCC(=O)c1ccc(Cl)cc1)NC[C@H]1CN(c2ccc(-c3nc[nH]n3)c(F)c2)C(=O)O1 [Compound 49, (S)-N-[[3-(3-fluoro-4-(1,2,4-triazolyl)phenyl)-2-oxo-5-oxazolidinyl]methyl]-4-(4-chlorophenyl)-4-oxobutanamide] |  | MIC: 4 to 16 µg/mL (≈ 8.48 to 33.9 µM)
O=C(CCC(=O)c1ccc(Cl)cc1)NC[C@H]1CN(c2ccc(-n3nnc4ccccc43)c(F)c2)C(=O)O1 [Compound 39, (S)-N-[[3-(3-fluoro-4-benzotriazolylphenyl)-2-oxo-5-oxazolidinyl]methyl]-4-(4-chlorophenyl)-4-oxobutanamide] | 2 to 8 µg/mL | 
O=C(CCC(=O)c1ccc2ccccc2c1)NC[C@H]1CN(c2ccc([N+]3([O-])CCOCC3)c(F)c2)C(=O)O1 [Compound 30, (S)-N-[[3-(3-fluoro-4-morpholinylphenyl)-2-oxo-5-oxazolidinyl]methyl]-4-(4-2-naphthyl)-4-oxobutanamide-N-oxide] | 0.5 to 2 µg/mL | MIC M. tuberculosis Resistant (Table II): 0.50 to 2.0 µg/mL
O=C(CCC(=O)c1cccs1)NC[C@H]1CN(c2ccc(-c3nc[nH]n3)c(F)c2)C(=O)O1 [Compound 47, (S)-N-[[3-(3-fluoro-4-(1,2,4-triazolyl)phenyl)-2-oxo-5-oxazolidinyl]methyl]-4-oxo-4-(2-thienyl)butanamide] |  | MIC: 2 to 4 µg/mL (≈ 4.51 to 9.02 µM)
CSc1ccc(C(=O)CCC(=O)NC[C@H]2CN(c3ccc(N4CCCC4)c(F)c3)C(=O)O2)cc1 [Compound 56, (S)-N-[[3-(3-fluoro-4-pyrrolidinylphenyl)-2-oxo-5-oxazolidinyl]methyl]-4-oxo-4-(4-thiomethylphenyl)butanamide] | >16 µg/mL | 

Compound | MIC against Clinical isolates Resistant | also measured
(S)-N-[[3-(3-fluoro-4-(1,2,4-triazolyl)phenyl)-2-oxo-5-oxazolidinyl]methyl]-4-oxo-4-phenylbutanamide [Compound 40] | 1 to 2 µg/mL | 
Cc1ccc(C(=O)CCC(=O)NC[C@H]2CN(c3ccc(-c4nc[nH]n4)c(F)c3)C(=O)O2)c(C)c1 [Compound 43, (S)-N-[[3-(3-fluoro-4-(1,2,4-triazolyl)phenyl)-2-oxo-5-oxazolidinyl]methyl]-4-(2,4-dimethylphenyl)-4-oxobutanamide] |  | MIC: 1 to 2 µg/mL (≈ 2.15 to 4.3 µM)
O=C(CCC(=O)c1ccc2ccccc2c1)NC[C@H]1CN(c2ccc(-c3nc[nH]n3)c(F)c2)C(=O)O1 [Compound 48, (S)-N-[[3-(3-fluoro-4-(1,2,4-triazolyl)phenyl)-2-oxo-5-oxazolidinyl]methyl]-4-(2-naphthyl)-4-oxobutanamide] |  | MIC: 2 to 8 µg/mL (≈ 4.1 to 16.4 µM)
O=C(CCC(=O)c1ccccc1)NC[C@H]1CN(c2ccc(N3CCOCC3)c(F)c2)C(=O)O1 [Compound 1, (S)-N-[[3-(3-fluoro-4-morpholinylphenyl)-2-oxo-5-oxazolidinyl]methyl]-4-oxo-4-phenylbutanamide] | >16 µg/mL | 
CC(=O)Nc1ccc(C(=O)CCC(=O)NC[C@H]2CN(c3ccc(N4CCCCC4)c(F)c3)C(=O)O2)cc1 [Compound 54, (S)-N-[[3-(3-fluoro-4-piperidylphenyl)-2-oxo-5-oxazolidinyl]methyl]-4-(4-acetamidophenyl)-4-oxobutanamide] | >16 µg/mL | 
CCCc1ccc(C(=O)CCC(=O)NC[C@H]2CN(c3ccc(-c4nc[nH]n4)c(F)c3)C(=O)O2)c(C)c1 [Compound 46, (S)-N-[[3-(3-fluoro-4-(1,2,4-triazolyl)phenyl)-2-oxo-5-oxazolidinyl]methyl]-4-(2′-methyl-4-propylphenyl)-4-oxobutanamide] |  | MIC: 2 to 8 µg/mL (≈ 4.05 to 16.2 µM)
O=C(CCC(=O)c1cccs1)NC[C@H]1CN(c2ccc(N3CCCC3)c(F)c2)C(=O)O1 [Compound 28, (S)-N-[[3-(3-fluoro-4-pyrrolidinylphenyl)-2-oxo-5-oxazolidinyl]methyl]-4-oxo-4-(2-thienyl)butanamide] | 2 to 8 µg/mL | 
COc1ccc(C(=O)CCC(=O)NC[C@H]2CN(c3ccc(N4CCOCC4)c(F)c3)C(=O)O2)cc1 [Compound 13, (S)-N-[[3-(3-fluoro-4-morpholinylphenyl)-2-oxo-5-oxazolidinyl]methyl]-4-(4-methoxyphenyl)-4-oxobutanamide] | 2 to 4 µg/mL | 
O=C(CCC(=O)c1ccc2ccccc2c1)NC[C@H]1CN(c2ccc(N3CCOCC3)c(F)c2)C(=O)O1 [Compound 16, (S)-N-[[3-(3-fluoro-4-morpholinylphenyl)-2-oxo-5-oxazolidinyl]methyl]-4-(4-2-naphthyl)-4-oxobutanamide] | 0.5(>16) μg/ml | 
O=C(C=CC(=O)c1ccccc1)NC[C@H]1CN(c2ccc(N3CCOCC3)c(F)c2)C(=O)O1 [Compound 34, (S)-N-[[3-(3-fluoro-4-morpholinylphenyl)-2-oxo-5-oxazolidinyl]methyl]-4-oxo-4-phenylbut-2-enamide] | >16 µg/mL | 
CC(=O)Nc1ccc(C(=O)CCC(=O)NC[C@H]2CN(c3ccc(-c4nc[nH]n4)c(F)c3)C(=O)O2)cc1 [Compound 50, (S)-N-[[3-(3-fluoro-4-(1,2,4-triazolyl)phenyl)-2-oxo-5-oxazolidinyl]methyl]-4-(4-acetamidophenyl)-4-oxobutanamide] |  | MIC: 2 to 4 µg/mL (≈ 4.04 to 8.09 µM)
O=C(CCC(=O)c1ccc(Cl)cc1)NC[C@H]1CN(c2ccc(N3CCCCC3)c(F)c2)C(=O)O1 [Compound 36, (S)-N-[[3-(3-fluoro-4-piperidylphenyl)-2-oxo-5-oxazolidinyl]methyl]-4-(4-chlorophenyl)-4-oxobutanamide] | 4 to 8 µg/mL | 
O=C(CCC(=O)c1cccs1)NC[C@H]1CN(c2ccc(N3CCOCC3)c(F)c2)C(=O)O1 [Compound 19, (S)-N-[[3-(3-fluoro-4-morpholinylphenyl)-2-oxo-5-oxazolidinyl]methyl]-4-oxo-4-(2-thienyl)butanamide] | 2 µg/mL (≈ 4.33 µM) | 
Cc1ccc(C(=O)CCC(=O)NC[C@H]2CN(c3ccc(N4CCOCC4)c(F)c3)C(=O)O2)cc1 [Compound 2, (S)-N-[[3-(3-fluoro-4-morpholinylphenyl)-2-oxo-5-oxazolidinyl]methyl]-4-(4-methylphenyl)-4-oxobutanamide] | 8 µg/mL (≈ 17 µM) | 
CSc1ccc(C(=O)CCC(=O)NC[C@H]2CN(c3ccc(N4CCOCC4)c(F)c3)C(=O)O2)cc1 [Compound 21, (S)-N-[[3-(3-fluoro-4-morpholinylphenyl)-2-oxo-5-oxazolidinyl]methyl]-4-oxo-4-(4-thiomethyl)phenylbutanamide] | 0.5(>16) μg/ml | 
O=C(C=CC(=O)c1ccccc1)NC[C@H]1CN(c2ccc(N3CCCCC3)c(F)c2)C(=O)O1 [Compound 55, (S)-N-[[3-(3-fluoro-4-piperidylphenyl)-2-oxo-5-oxazolidinyl]methyl]-4-oxo-4-phenylbut-2-enamide] | >16 µg/mL | 
